We go through seven compounds from patent publication US9862711B2, “Pyrazine derivatives as phosphatidylinositol 3-kinase inhibitors” (NOVARTIS AG, priority 2014, dated 2018).

The structures appear in SMILES notation.

What is called IC50 is the concentration at which inhibition is half-maximal.

Sequence of PI 3-kinase delta (O00329 whole entry): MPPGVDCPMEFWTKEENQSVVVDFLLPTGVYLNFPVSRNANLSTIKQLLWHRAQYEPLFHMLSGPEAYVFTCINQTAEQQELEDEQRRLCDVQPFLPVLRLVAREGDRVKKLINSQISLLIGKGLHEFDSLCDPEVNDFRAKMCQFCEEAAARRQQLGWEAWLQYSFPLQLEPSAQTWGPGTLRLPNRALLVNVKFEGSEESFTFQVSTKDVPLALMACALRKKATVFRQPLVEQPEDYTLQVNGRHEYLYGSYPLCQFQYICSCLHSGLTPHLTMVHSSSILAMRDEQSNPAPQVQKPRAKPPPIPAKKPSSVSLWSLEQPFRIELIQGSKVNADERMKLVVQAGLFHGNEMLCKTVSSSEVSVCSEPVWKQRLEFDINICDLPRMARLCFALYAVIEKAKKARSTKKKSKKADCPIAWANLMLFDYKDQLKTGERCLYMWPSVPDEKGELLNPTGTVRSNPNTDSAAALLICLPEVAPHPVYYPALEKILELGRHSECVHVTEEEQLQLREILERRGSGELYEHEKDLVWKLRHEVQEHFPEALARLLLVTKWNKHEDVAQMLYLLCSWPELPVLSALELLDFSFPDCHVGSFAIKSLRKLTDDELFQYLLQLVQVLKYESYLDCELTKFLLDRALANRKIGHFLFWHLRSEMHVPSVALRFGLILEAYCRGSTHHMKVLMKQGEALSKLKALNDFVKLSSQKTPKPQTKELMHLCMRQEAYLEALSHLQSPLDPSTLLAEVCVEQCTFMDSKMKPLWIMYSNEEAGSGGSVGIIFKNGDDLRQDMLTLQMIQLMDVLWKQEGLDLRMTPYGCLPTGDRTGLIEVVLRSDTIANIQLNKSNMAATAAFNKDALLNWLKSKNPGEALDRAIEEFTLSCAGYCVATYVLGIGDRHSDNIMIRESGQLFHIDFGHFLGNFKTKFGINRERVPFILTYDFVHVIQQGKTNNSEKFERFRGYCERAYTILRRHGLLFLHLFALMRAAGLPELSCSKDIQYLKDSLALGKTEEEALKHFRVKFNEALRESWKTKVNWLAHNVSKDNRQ
Sequence of PI 3-kinase delta (Q63787 whole entry partner): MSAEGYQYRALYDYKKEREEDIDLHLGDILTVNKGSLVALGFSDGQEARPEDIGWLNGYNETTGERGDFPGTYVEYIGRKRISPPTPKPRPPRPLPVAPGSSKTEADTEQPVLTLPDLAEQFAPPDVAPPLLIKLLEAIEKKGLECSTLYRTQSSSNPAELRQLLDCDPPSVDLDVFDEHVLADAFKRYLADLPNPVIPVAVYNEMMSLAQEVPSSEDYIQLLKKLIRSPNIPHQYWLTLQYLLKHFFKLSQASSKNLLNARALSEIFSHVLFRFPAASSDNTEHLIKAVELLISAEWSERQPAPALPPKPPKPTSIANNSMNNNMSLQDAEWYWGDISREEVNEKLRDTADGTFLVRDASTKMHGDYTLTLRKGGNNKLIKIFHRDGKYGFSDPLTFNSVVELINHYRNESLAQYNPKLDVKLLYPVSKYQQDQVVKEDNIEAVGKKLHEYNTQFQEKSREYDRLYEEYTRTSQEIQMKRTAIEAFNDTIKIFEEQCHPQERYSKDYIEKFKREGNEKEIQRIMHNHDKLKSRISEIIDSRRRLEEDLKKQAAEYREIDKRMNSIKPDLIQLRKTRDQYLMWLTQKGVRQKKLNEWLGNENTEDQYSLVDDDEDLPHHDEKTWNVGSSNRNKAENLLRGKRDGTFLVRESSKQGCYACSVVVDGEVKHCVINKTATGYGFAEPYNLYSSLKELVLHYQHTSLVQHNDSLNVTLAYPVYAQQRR

The target of the assay is PI 3-kinase delta (Homo sapiens (Human), UniProt O00329). In words: Cellular p-Akt (S473) SureFire assay, Rat-1_PI3Kdelta cells (Assay J). Type of assay: cell-based. The following applies: p-AKT (Ser473) in Rat-1 cells expressing myr-HA-hp110 delta, 1 h compound; read-out: Assay J PI3Kδ IC50. An excerpt:
Cellular Assays for PI 3-Kinase Alpha (H), Beta (I) and Delta (J)
AlphaScreen (Amplified Luminescent Proximity Homogeneous Assay, ALPHA, Perkin Elmer) is a non-radioactive bead-based proximity assay technology to study biomolecular interactions in a homogenous microtiter plate format. The brand name SureFire denotes AlphaScreen assays that are adapted to quantify the phosphorylation of endogenous cellular proteins in cell lysates, by using matched antibody pairs, which consist of an anti-phospho-kinase and an anti-kinase antibody. The assay allows characterization of kinase signaling in cells as well as measurement of kinase inhibitor effects.
Rat-1 cell lines stably overexpressing activated PI 3-kinase class I isoforms Rat-1 pBABEpuro Myr-HA-hp110 delta clone 5 (Rat-1_PI3Kdelta) and Rat-1 pBABEpuro Myr-HA-hp110 alpha clone 6 (Rat-1_PI3Kalpha) and Rat-1 pBABEpuro Myr-HA-hp110 beta (Rat-1_PI3beta) were cultivated in complete growth medium (DMEM high glucose, 10% (v/v) fetal bovine serum, 1% (v/v) MEM NEAA, 10 mM HEPES, 2 mM L-glutamine, puromycin (10 μg/mL for Rat-1_PI3Kdelta and Rat-1_PI3Kalpha, 4 ug/mL for Rat-1_PI3beta), 1% (v/v) Pen/Strep) to 90% confluency at 37° C./5% CO2/90% humidity in a humidified CO2 incubator and were split twice a week. The following materials were used for p-AKT(5473) detection in Rat-1 cell lysates: Dulbecco's modified Eagle's medium (DMEM) high glucose (Gibco Invitrogen, Basel, Switzerland, Cat. No. 41965), heat inactivated fetal bovine serum, qualified (HI FBS; Gibco Invitrogen, Basel, Switzerland, Lot. No. 16140), MEM non essential amino acids (NEAA; Gibco Invitrogen, Basel, Switzerland, Cat. No. 11140), HEPES (Gibco Invitrogen, Basel, Switzerland, Cat. No. 15630), penicillin/streptomycin (Pen/Strep, 100×; Gibco Invitrogen, Basel, Switzerland, Cat. No. 15140-122), L-glutamine (Gibco Invitrogen, Basel, Switzerland, Cat. No. 25030), puromycin (Sigma Aldrich, Buchs, Switzerland, Cat. No. P9620), DMSO (MERCK, Dietikon, Switzerland, Cat. No. 8.02912.2500), H2O, MilliQ-H2O unless otherwise stated (MILLIPORE QGARDOOR1, Millipore, Zug, Switzerland), bovine serum albumine (BSA; Sigma Aldrich, Buchs, Switzerland Cat. No. A8412), SureFire p-Akt 1/2 (Ser473) Assay Kit (Perkin Elmer, Schwerzenbach, Switzerland, Cat. No. TGRAS50K).
The p-Akt (S473) SureFire assay measures the phosphorylation of endogenous cellular Akt 1/2 at Ser473 in cell lysates. Using Rat-1 cells stably expressing myr-HA-tagged versions of the human PI3Kdelta, PI3Kalpha, or PI3Kbeta p110 catalytic subunit isoforms, the assay was developed as a two-plate protocol in a 384-well format.
For compound testing, the cells were seeded at a density of 4000 (Rat-1_PI3Kdelta), 7500 (Rat-1_PI3Kalpha), or 6200 (Rat-1_PI3Kbeta) cells in 20 μl complete growth medium into cell culture treated 384-well plates and were grown at 37° C./5% CO2/90% humidity for 24 h. Shortly before compound transfer, the complete medium was removed, 30 μl assay buffer (DMEM high glucose, 1×MEM NEAA, 10 mM HEPES, 2 mM L-glutamine, 0.1% (w/v) BSA) was added and 10 μl of the compound predilutions were transferred to the cells. After treatment with compound for 1 h, the cells were lysed by the addition of 20 μl lysis buffer supplemented with 0.24% (w/v) BSA. Detection of p-AKT (Ser473) was performed with the SureFire p-Akt 1/2 (Ser473) Assay Kit according to the manufacturer's instructions using 5 ul of cell lysate in a total detection volume of 12 μl.
IC50 values of the percentage inhibition of each compound at 8 concentrations (usually 10, 3.0, 1.0, 0.3, 0.1, 0.030, 0.010 and 0.003 μM) n=2 were derived by fitting a sigmoidal dose-response curve to a plot of assay readout over inhibitor concentration as described. All fits were performed with the program XLfit4 (ID Business Solutions, Guildford, UK).
For the compound `Cc1ccc(S(=O)(=O)NCC2(C)COC2)cc1-c1cncc(-c2cn(C)nc2C)n1` [Example 4, Trans 3-[6-(1,3-Dimethyl-1H-pyrazol-4-yl)-pyrazin-2-yl]-4-methyl-N-(3-methyl-oxetan-3-ylmethyl)-benzenesulfonamide], the IC50 amounted to 285 nM.
Consider `Cc1ccc(S(=O)(=O)NCCC(C)(C)O)cc1-c1cncc(-c2cn(CCN3CCOCC3)nc2C)n1` [Example 10, N-(3-Hydroxy-3-methyl-butyl)-4-methyl-3-{6-[3-methyl-1-(2-morpholin-4-yl-ethyl)-1H-pyrazol-4-yl]-pyrazin-2-yl}-benzenesulfonamide], for which the IC50 worked out at 771 nM.
In the case of `Cc1ccc(S(=O)(=O)N[C@H]2CC[C@H](O)CC2)cc1-c1cncc(-c2cccnc2)n1` [Example 11, Trans N-(4-Hydroxy-cyclohexyl)-4-methyl-3-(6-pyridin-3-yl-pyrazin-2-yl)-benzenesulfonamide], the IC50 was found to be 1050 nM.
Consider `Cc1ccc(S(=O)(=O)NCCC(C)(C)O)cc1-c1cncc(-c2cn(C)nc2C)n1` [Example 3, 3-[6-(1,3-Dimethyl-1H-pyrazol-4-yl)-pyrazin-2-yl]-N-(3-hydroxy-3-methyl-butyl)-4-methyl-benzenesulfonamide], for which the IC50 worked out at 1370 nM.
Turning to `Cc1ncc(-c2cncc(-c3cc(S(=O)(=O)N[C@H]4CC[C@H](O)CC4)ccc3C)n2)s1` [Example 5, Trans N-(4-Hydroxycyclohexyl)-4-methyl-3-(6-(2-methylthiazol-5-yl)pyrazin-2-yl)benzenesulfonamide], the IC50 came to 540 nM.
Take `Cc1ccc(S(=O)(=O)NCC(C)(C)O)cc1-c1cncc(-c2cn(C)nc2C)n1` [Example 2, 3-[6-(1,3-Dimethyl-1H-pyrazol-4-yl)-pyrazin-2-yl]-N-(2-hydroxy-2-methyl-propyl)-4-methyl-benzenesulfonamide]: the IC50 came out at 367 nM.
Take `Cc1ccc(S(=O)(=O)NCCC(C)(C)O)cc1-c1cncc(-c2cnn(CCN3CCOCC3)c2)n1` [Example 9, N-(3-Hydroxy-3-methyl-butyl)-4-methyl-3-{6-[1-(2-morpholin-4-yl-ethyl)-1H-pyrazol-4-yl]-pyrazin-2-yl}-benzenesulfonamide]: the IC50 was found to be 1680 nM.
